Source: the supplement of paper PMC10307832

Key:
Experiment in all cases: relative viability (nuclei count vs DMSO), 5 days (fraction); higher = more cells survive
ChaGo-K-1 = test system: ChaGo-K-1
Method in brief: (§1)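 Relative viability divides the nuclei count in treated wells by that in vehicle wells. Lung cancer cell lines were seeded in 1536-well plates, dosed by pin tool the next day, and fixed and stained after 5 days in one step with final 0.05% Triton X-100, 1% formaldehyde and 1 ug/ml Hoechst. Dosing was a single drug or a fixed anchor-drug dose plus five library-drug doses (not always all listed) in √10 steps, and values are medians of duplicate plates imaged at 4×.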

EKVX = test system: EKVX
Method in brief: as §1

EMC-BAC-2 = test system: EMC-BAC-2
Method in brief: as §1

EPLC-272H = test system: EPLC-272H
Method in brief: as §1

H3255 = test system: H3255
Method in brief: as §1

HCC-15 = test system: HCC-15
Method in brief: as §1

HCC-827 = test system: HCC-827
Method in brief: as §1

LC-2-ad = test system: LC-2-ad
Method in brief: as §1

LCLC-97TM1 = test system: LCLC-97TM1
Method in brief: as §1

NCI-H1793 = test system: NCI-H1793
Method in brief: as §1

NCI-H1915 = test system: NCI-H1915
Method in brief: as §1

NCI-H1944 = test system: NCI-H1944
Method in brief: as §1

NCI-H1993 = test system: NCI-H1993
Method in brief: as §1

NCI-H23 = test system: NCI-H23
Method in brief: as §1

NCI-H322M = test system: NCI-H322M
Method in brief: as §1

NCI-H460 = test system: NCI-H460
Method in brief: as §1

NCI-H522 = test system: NCI-H522
Method in brief: as §1

NCI-H661 = test system: NCI-H661
Method in brief: as §1

PC-14 = test system: PC-14
Method in brief: as §1

SK-LU-1 = test system: SK-LU-1
Method in brief: as §1

SW 900 = test system: SW 900
Method in brief: as §1

For COCC1(CO)C(=O)C2CCN1CC2 (stereo unspecified) [PRIMA-1MET] + O=C(CCCCCCC(=O)Nc1ccccc1)NO [Vorinostat] (partner 1 µM), which relative viability (ChaGo-K-1; first compound 0.2 µM) is on record?
The relative viability was 0.858.

And the relative viability (ChaGo-K-1; first compound 0.6325 µM)?
The relative viability was 0.431.

What about the relative viability (ChaGo-K-1; first compound 2 µM) of the same compound?
The relative viability was 0.627.

What about the relative viability (ChaGo-K-1; first compound 6.325 µM) of the same compound?
Its relative viability is 0.743.

What about the relative viability (ChaGo-K-1; first compound 20 µM) of the same compound?
The relative viability was 0.709.

And the relative viability (EKVX; first compound 0.2 µM)?
Its relative viability is 0.995.

What about the relative viability (EKVX; first compound 0.6325 µM) of the same compound?
Its relative viability is 0.548.

What about the relative viability (EKVX; first compound 2 µM) of the same compound?
The relative viability was 0.672.

What about the relative viability (EKVX; first compound 6.325 µM) of the same compound?
The relative viability was 0.849.

And the relative viability (EKVX; first compound 20 µM)?
Its relative viability is 0.64.

And the relative viability (EMC-BAC-2; first compound 0.2 µM)?
Its relative viability is 0.582.

And the relative viability (EMC-BAC-2; first compound 0.6325 µM)?
Its relative viability is 0.36.

What about the relative viability (EMC-BAC-2; first compound 2 µM) of the same compound?
Its relative viability is 0.335.

What about the relative viability (EMC-BAC-2; first compound 6.325 µM) of the same compound?
The relative viability was 0.527.

And the relative viability (EMC-BAC-2; first compound 20 µM)?
The relative viability was 0.271.

And the relative viability (EPLC-272H; first compound 0.2 µM)?
Its relative viability is 0.536.

And the relative viability (EPLC-272H; first compound 0.6325 µM)?
Its relative viability is 0.581.

What about the relative viability (EPLC-272H; first compound 2 µM) of the same compound?
Its relative viability is 0.417.

What about the relative viability (EPLC-272H; first compound 6.325 µM) of the same compound?
The relative viability was 0.534.

And the relative viability (EPLC-272H; first compound 20 µM)?
Its relative viability is 0.0678.

What about the relative viability (H3255; first compound 0.2 µM) of the same compound?
The relative viability was 0.745.

What about the relative viability (H3255; first compound 0.6325 µM) of the same compound?
The relative viability was 0.779.

And the relative viability (H3255; first compound 2 µM)?
The relative viability was 0.809.

And the relative viability (H3255; first compound 6.325 µM)?
Its relative viability is 0.901.

What about the relative viability (H3255; first compound 20 µM) of the same compound?
The relative viability was 0.656.

And the relative viability (HCC-15; first compound 0.2 µM)?
The relative viability was 0.962.

What about the relative viability (HCC-15; first compound 0.6325 µM) of the same compound?
Its relative viability is 0.798.

What about the relative viability (HCC-15; first compound 2 µM) of the same compound?
The relative viability was 0.887.

What about the relative viability (HCC-15; first compound 6.325 µM) of the same compound?
Its relative viability is 0.871.

And the relative viability (HCC-15; first compound 20 µM)?
The relative viability was 0.758.

And the relative viability (HCC-827; first compound 0.2 µM)?
The relative viability was 0.939.

And the relative viability (HCC-827; first compound 0.6325 µM)?
Its relative viability is 0.173.

And the relative viability (HCC-827; first compound 2 µM)?
Its relative viability is 0.661.

What about the relative viability (HCC-827; first compound 6.325 µM) of the same compound?
Its relative viability is 0.816.

What about the relative viability (HCC-827; first compound 20 µM) of the same compound?
Its relative viability is 0.855.

And the relative viability (LC-2-ad; first compound 0.2 µM)?
Its relative viability is 0.798.

What about the relative viability (LC-2-ad; first compound 0.6325 µM) of the same compound?
The relative viability was 0.578.

What about the relative viability (LC-2-ad; first compound 2 µM) of the same compound?
Its relative viability is 0.679.

And the relative viability (LC-2-ad; first compound 6.325 µM)?
The relative viability was 0.733.

What about the relative viability (LC-2-ad; first compound 20 µM) of the same compound?
Its relative viability is 0.645.

And the relative viability (LCLC-97TM1; first compound 0.2 µM)?
Its relative viability is 0.547.

What about the relative viability (LCLC-97TM1; first compound 0.6325 µM) of the same compound?
Its relative viability is 0.675.

What about the relative viability (LCLC-97TM1; first compound 2 µM) of the same compound?
The relative viability was 0.747.

What about the relative viability (LCLC-97TM1; first compound 6.325 µM) of the same compound?
The relative viability was 0.791.

And the relative viability (LCLC-97TM1; first compound 20 µM)?
The relative viability was 0.464.

What about the relative viability (NCI-H1793; first compound 0.2 µM) of the same compound?
The relative viability was 0.932.

What about the relative viability (NCI-H1793; first compound 0.6325 µM) of the same compound?
Its relative viability is 0.488.

And the relative viability (NCI-H1793; first compound 6.325 µM)?
Its relative viability is 0.797.

And the relative viability (NCI-H1793; first compound 20 µM)?
Its relative viability is 0.762.

And the relative viability (NCI-H1915; first compound 0.2 µM)?
The relative viability was 0.605.

What about the relative viability (NCI-H1915; first compound 0.6325 µM) of the same compound?
Its relative viability is 0.378.

And the relative viability (NCI-H1915; first compound 2 µM)?
The relative viability was 0.446.

What about the relative viability (NCI-H1915; first compound 6.325 µM) of the same compound?
The relative viability was 0.625.

And the relative viability (NCI-H1915; first compound 20 µM)?
Its relative viability is 0.482.

And the relative viability (NCI-H1944; first compound 0.2 µM)?
The relative viability was 0.724.

And the relative viability (NCI-H1944; first compound 0.6325 µM)?
Its relative viability is 0.4.

And the relative viability (NCI-H1944; first compound 2 µM)?
The relative viability was 0.428.

And the relative viability (NCI-H1944; first compound 6.325 µM)?
Its relative viability is 0.531.

What about the relative viability (NCI-H1944; first compound 20 µM) of the same compound?
Its relative viability is 0.539.

And the relative viability (NCI-H1993; first compound 0.2 µM)?
The relative viability was 0.743.

And the relative viability (NCI-H1993; first compound 2 µM)?
Its relative viability is 0.629.

What about the relative viability (NCI-H1993; first compound 6.325 µM) of the same compound?
Its relative viability is 0.651.

What about the relative viability (NCI-H1993; first compound 20 µM) of the same compound?
The relative viability was 0.619.

And the relative viability (NCI-H23; first compound 0.2 µM)?
The relative viability was 0.72.

And the relative viability (NCI-H23; first compound 0.6325 µM)?
Its relative viability is 0.48.

And the relative viability (NCI-H23; first compound 2 µM)?
Its relative viability is 0.482.

And the relative viability (NCI-H23; first compound 6.325 µM)?
The relative viability was 0.569.

And the relative viability (NCI-H23; first compound 20 µM)?
Its relative viability is 0.0886.

And the relative viability (NCI-H322M; first compound 0.2 µM)?
The relative viability was 1.05.

And the relative viability (NCI-H322M; first compound 0.6325 µM)?
Its relative viability is 0.806.

What about the relative viability (NCI-H322M; first compound 6.325 µM) of the same compound?
The relative viability was 0.994.

What about the relative viability (NCI-H322M; first compound 20 µM) of the same compound?
Its relative viability is 0.837.

What about the relative viability (NCI-H460; first compound 0.2 µM) of the same compound?
The relative viability was 0.949.

And the relative viability (NCI-H460; first compound 0.6325 µM)?
Its relative viability is 0.588.

And the relative viability (NCI-H460; first compound 2 µM)?
Its relative viability is 0.686.

And the relative viability (NCI-H460; first compound 6.325 µM)?
The relative viability was 0.613.

What about the relative viability (NCI-H460; first compound 20 µM) of the same compound?
The relative viability was 0.0194.

What about the relative viability (NCI-H522; first compound 0.2 µM) of the same compound?
Its relative viability is 0.724.

And the relative viability (NCI-H522; first compound 0.6325 µM)?
The relative viability was 0.923.

And the relative viability (NCI-H522; first compound 2 µM)?
The relative viability was 0.733.

What about the relative viability (NCI-H522; first compound 6.325 µM) of the same compound?
Its relative viability is 0.83.

What about the relative viability (NCI-H522; first compound 20 µM) of the same compound?
Its relative viability is 0.213.

And the relative viability (NCI-H661; first compound 0.2 µM)?
Its relative viability is 0.853.

And the relative viability (NCI-H661; first compound 0.6325 µM)?
The relative viability was 0.771.

And the relative viability (NCI-H661; first compound 2 µM)?
The relative viability was 0.774.

And the relative viability (NCI-H661; first compound 6.325 µM)?
Its relative viability is 0.816.

What about the relative viability (NCI-H661; first compound 20 µM) of the same compound?
The relative viability was 0.759.

And the relative viability (PC-14; first compound 0.2 µM)?
Its relative viability is 0.722.

And the relative viability (PC-14; first compound 0.6325 µM)?
Its relative viability is 0.755.

And the relative viability (PC-14; first compound 2 µM)?
Its relative viability is 0.728.

What about the relative viability (PC-14; first compound 6.325 µM) of the same compound?
Its relative viability is 0.777.

And the relative viability (PC-14; first compound 20 µM)?
Its relative viability is 0.019.

And the relative viability (SK-LU-1; first compound 0.2 µM)?
Its relative viability is 0.852.

What about the relative viability (SK-LU-1; first compound 0.6325 µM) of the same compound?
Its relative viability is 0.761.

What about the relative viability (SK-LU-1; first compound 2 µM) of the same compound?
The relative viability was 0.839.

What about the relative viability (SK-LU-1; first compound 6.325 µM) of the same compound?
The relative viability was 0.673.

And the relative viability (SK-LU-1; first compound 20 µM)?
The relative viability was 0.561.

And the relative viability (SW 900; first compound 0.2 µM)?
Its relative viability is 0.58.

What about the relative viability (SW 900; first compound 0.6325 µM) of the same compound?
The relative viability was 0.427.

What about the relative viability (SW 900; first compound 6.325 µM) of the same compound?
The relative viability was 0.504.

What about the relative viability (SW 900; first compound 20 µM) of the same compound?
Its relative viability is 0.129.
